Here are results for 87 compounds from a melting point compilation (Tetko et al.; mined from patent text by program, amines drawn as free bases though some values may be those of a salt).

For orientation: melting point means the temperature, or range, at which the solid turns liquid.

Consider `CCOc1ccc2nc3[nH]c(=O)[nH]c3cc2c1`, for which the melting point is > 320 °C.

On to `c1cc(CN2CCCCC2)ccc1CN1CCCCC1`, for which the melting point fell in the range of 86 to 88 °C.

Compound `CC(C)(C)OC(=O)NCCNC(=O)c1nc(Cl)sc1-c1ccccc1` came in with a melting point of 114 to 116 °C.

Turning to `FC(F)(F)C(F)(F)C(F)(F)COc1ccnc(CSc2nc3cscc3[nH]2)c1`, the melting point worked out at 117 °C.

The compound `CCCCCCC#Cc1ccc(C=C(C(=O)O)C(=O)O)s1` returned a melting point of 106 °C.

As for `CNC(=O)[C@@H]1CCC[C@@H]1Nc1nc(Nc2cc3c(cc2OC)CCN(CC(=O)N(C)C)CC3)ncc1Cl` (relative stereo), the melting point is 240 °C.

In turn, `CCOC(=O)c1cn(C(c2ccccc2)(c2ccccc2)c2ccccc2)nn1` yielded a melting point of 201 to 203 °C.

`Cc1nc(CN2CCN(c3cccc(Br)c3)CC2)cs1` had a melting point of 82 °C.

Compound `NC(=O)N1C(=O)C(C(=O)c2cccs2)c2ccncc21` (configuration not stated) showed a melting point of 213 to 215 °C.

As to `COC(=O)c1ccc(O)c(C=O)c1`, the melting point was 80 to 81 °C.

`CC(C)(C)OC(=O)N1CCC(CC[C@@H]2CCCNC2=O)CC1` displayed a melting point of 110 to 111 °C.

In the case of `Cc1oc(-c2ccc(S(C)(=O)=O)cc2)c(Oc2ccc(F)cc2F)c(=O)c1Cl`, the melting point worked out at 210 °C.

For the compound `CCCCOP(=O)(CCCCC1(C(=O)NCCC)c2ccccc2-c2cccnc21)OCCCC` (configuration not stated), the melting point was in the range of 131 to 133 °C.

As for `O=C(NCc1ccccn1)Nc1cc(N2CC(COc3ccccc3)OC2=O)ccn1` (configuration not stated), the melting point fell in the range of 155 to 156 °C.

Compound `CCOC(=O)c1ccc(NC(=O)/C=C/c2cnn(C)c2-c2ccc(F)cc2)cc1` had a melting point of 202 to 203 °C.

`OCCCCOC(c1ccccc1)(c1ccccc1)c1ccccc1` registered a melting point of 73 to 74 °C.

`Cc1cccc(Nc2cc(Nc3ccc(OCC(O)CN(C)C)cc3)ncn2)c1` (configuration not stated) registered a melting point of 192 to 195 °C.

In the case of `COC(=O)CCC(=O)Nc1cccc(O)c1`, the melting point lay in the range of 144 to 146 °C.

Regarding `O=S1(=O)N=CN(C2CC2)c2c1ccc(Br)c2F`, the melting point lay in the range of 244 to 247 °C.

In the case of `O=Cc1cc(Cl)ccc1Oc1ccc(Cl)cc1[N+](=O)[O-]`, the melting point was 128 to 130 °C.

Compound `COc1ccc(Cc2nnc(-c3ccc4occc4c3)o2)cc1` yielded a melting point of 108 to 109 °C.

On to `O=C(O)c1ccc(CCCC2SCC(=O)N2C/C=C\C2(O)CCCCC2)cc1` (configuration not stated), for which the melting point fell in the range of 118 to 120 °C.

As for `CCc1nc(/C=C/c2cn(-c3ccccc3)nc2OCc2ccc(OCc3nc(-c4ccc(C(=O)O)s4)oc3C)c(OC)c2)cs1`, the melting point lay in the range of 150 to 151 °C.

With `c1cncc(N=C2SCC3Cc4ccccc4N23)c1` (racemic), the melting point was 131 °C.

In turn, `CCOC(=O)c1ccc(N2CCN(C(=O)CCc3cc(C(C)(C)C)c(O)c(C(C)(C)C)c3)CC2)cc1` had a melting point of 85 to 86 °C.

`COC(CN(C)C(=O)Nc1nnc(C(C)Oc2ccc(Cl)c(Cl)c2)s1)OC` (configuration not stated) showed a melting point of 124 to 127 °C.

Turning to `CC(=O)Nc1c(C#N)cnn1-c1c(Cl)cc(C(F)(F)F)c(Cl)c1Cl`, the melting point is 177 to 178 °C.

Consider `COc1cc2cc3c4c(cccc4c2cc1OC)C(=O)OC3=O`, for which the melting point is > 324 °C.

`CC(C)(C)c1ccc(C(=O)Nc2ccccc2C(=O)NCCc2ncc[nH]2)cc1` gave a melting point of 127 to 132 °C.

In turn, `CC/C=C/c1nc(Cl)c(C=O)n1Cc1ccc(-c2ccccc2C(=O)O)cc1` returned a melting point of 164 to 166 °C.

For the compound `NC(=O)CC12CC3CC(CC(C3)C1)C2`, the melting point amounted to 174 °C.

In turn, `COc1ccc(CC2(C)CN(C(c3ccccc3)c3ccccc3)CCN2C(C)=O)cc1OC` (configuration not stated) returned a melting point of 116 °C.

In turn, `O=[N+]([O-])c1ccc2nc3c(nc2c1)OCC1CCCCN31` (configuration not stated) displayed a melting point of 151 to 154 °C.

For the compound `CC(C)Oc1ccc(-n2c(-c3ccc(C(=O)O)cc3)c(C(=O)O)c3cc(Oc4ccc(Cl)cc4)ccc32)cc1`, the melting point lay in the range of 217 to 222 °C.

Regarding `CCC(O)(c1ccc(F)cc1)c1ccc(OCc2ccccc2)cc1` (configuration not stated), the melting point lay within 56 to 57 °C.

For the compound `CCOC(=O)c1cnc2ccc(OCC)nc2c1Nc1ccc(Oc2ccccn2)cc1`, the melting point was 148 to 151 °C.

The compound `CCC1=Nc2ccccc2CC(c2cccnc2)N1C` (configuration not stated) returned a melting point of 72 to 75 °C.

In turn, `Cc1ccc(=NC(=O)C(F)(F)F)n(-c2cccc(C(F)(F)F)c2)c1` showed a melting point of 115 °C.

For the compound `Cc1cccc(NC(=O)NCC(=O)N2[C@@H](C(=O)NC(C)(C)C)CC[C@H]2c2ccccc2)c1` (racemic), the melting point was determined as 169 °C.

Turning to `N=C(NC1CC1)NN1CCc2cc(Cl)ccc21`, the melting point was in the range of 146 to 149 °C.

`[N-]=[N+]=NCc1ccc2nc[nH]c2c1` registered a melting point of 110 to 114 °C.

The compound `Cc1cc(SCC#Cc2ccc(Cl)cc2)ccc1OCC(=O)O` yielded a melting point of 106 to 108 °C.

As to `CSc1ccc(C2=C(Br)CCC2)cc1`, the melting point is 52 to 54 °C.

The compound `CCCCn1c(=O)c2c(ncn2S(=O)(=O)c2cccs2)n(CCCC)c1=O` returned a melting point of 145 to 146 °C.

Turning to `O=C(O)CCCCCc1nc2ccccc2s1`, the melting point was in the range of 71 to 72 °C.

In turn, `O=c1[nH]c(=S)[nH]c(-c2ccccc2)c1Cc1c(O)ccc2ccccc12` returned a melting point of 253 to 255 °C.

The compound `COc1ccc2c(c1)CC(=O)NC2c1ccccc1Cl` (configuration not stated) displayed a melting point of 203 to 205 °C.

The compound `CCn1ccc2nc(N3CCN(Cc4ccccc4)CC3)ncc2c1=O` returned a melting point of 116 to 118 °C.

Turning to `CC(C)(C)OC(=O)N1CCC(N2C(=O)OCc3cc(Cl)ccc32)CC1`, the melting point was in the range of 177 to 179 °C.

Compound `COc1ccc([C@H]2SC(c3ccccc3)=C(C)N(CCN(C)C)C(=O)[C@H]2OC(C)=O)cc1` displayed a melting point of 90 to 92 °C.

For `CCC(=O)C(CCCCCCOc1ccc(S(N)(=O)=O)cc1)C(=O)CC`, the melting point lay within 86 to 87 °C.

Take `Cc1nc2c3c(c(C(=O)N4CC(F)C4)cc2n1C)CCC1(Cc2ccccc2C1)N3`: the melting point lay within 259 to 260 °C.

Turning to `CCn1cc(C(C)=O)c(=O)c2ccc(-c3ccncc3)cc21`, the melting point lay in the range of 231 to 233 °C.

In the case of `Cc1nc[nH]c1CSCCNc1nc(C)c(-c2ccccc2)c(=O)[nH]1`, the melting point fell in the range of 216 to 218 °C.

Take `CCCCCCCCCCCCOC(=O)NCCCCC(N)C(=O)O` (configuration not stated): the melting point was > 260 °C.

On to `COC(=O)c1ccc(COc2cccc(-c3c(C(=O)c4ccccc4)cnc4c(C(F)(F)F)cccc34)c2)c(OC)c1`, for which the melting point fell in the range of 60 to 63 °C.

`Cc1ccc(CNC(=O)c2ccc3n2Cc2ccccc2N(C(=O)CSc2ccc(Br)cc2)C3)cc1` displayed a melting point of 131 to 132 °C.

In turn, `CC(C)OC(=O)Nc1ccsc1` came in with a melting point of 105 to 107 °C.

For `O=C1c2ccccc2S(=O)(=O)N1CSc1nnc(SCCN2CCOCC2)s1`, the melting point lay in the range of 129 to 131 °C.

The compound `CC(C)C(OC(=O)NC(C)(Cc1ccccc1)C(=O)NC(CO)c1ccccc1)c1ccccc1` (configuration not stated) came in with a melting point of 124 to 130 °C.

`Clc1ccc2c(c1)C1(CO1)c1ccccc1C21CO1` (configuration not stated) had a melting point of 61 to 67 °C.

As to `Cc1c(F)c(N2CCNCC2)c(F)c2c1c(=O)c(C(=O)O)cn2C1CC1`, the melting point is 205 to 206 °C.

`CCOC(=O)c1ccc(OCCCCCCc2cccc(OCc3ccccc3)c2OCc2ccccc2)cc1`: the melting point was in the range of 63 to 65 °C.

In turn, `CCCCNC(=O)Nc1ccccc1C(=O)OC` gave a melting point of 84 to 85 °C.

Consider `FC(F)(F)c1cccc(CNc2ncnc3ccccc23)c1`, for which the melting point fell in the range of 145 to 146 °C.

For `CCOC(=O)COc1c(C(C)C)cc(C(O)(C(F)(F)F)C(F)(F)F)cc1C(C)C`, the melting point lay within 91 to 93 °C.

Compound `CSc1ccc2c(=O)n([C@H](C)[C@](O)(Cn3cncn3)c3ccc(F)cc3F)cnc2c1` had a melting point of 152 to 153 °C.

In the case of `CC(C)S(=O)(=O)NC(=O)Nc1ccc(Cl)c(Cl)c1`, the melting point was 151 to 154 °C.

Regarding `COc1cc(-n2cccn2)ccc1-n1cc(OC)c(=O)c(-c2ccnn2-c2ccccc2)n1`, the melting point lay in the range of 133 to 135 °C.

Take `CCCc1cc(O)c(C#N)s1`: the melting point was 78 °C.

In turn, `Cc1c(-c2ccccc2)c(N2CC[C@H](N(C)C)C2)c2oc(N3CC(CO)C3)nc2c1C#N` registered a melting point of 48 to 51 °C.

For `CSC(=S)NN=Cc1c[nH]cn1`, the melting point is 259 to 261 °C.

`Cc1c(COC(=O)N(c2ccccc2)c2ccccc2)cccc1OCC(=O)O` registered a melting point of 180 to 181 °C.

Turning to `COc1cc(CC(C)=O)ccc1OCCCN1CCC(c2noc3cc(F)ccc23)CC1`, the melting point fell in the range of 118 to 119 °C.

In the case of `Cc1cc2c(c(C(O)c3cn(C(c4ccccc4)(c4ccccc4)c4ccccc4)cn3)c1)OC(C)(C)OC2` (configuration not stated), the melting point fell in the range of 205 to 215 °C.

With `Oc1cc(C(F)(F)F)nn1-c1ccccc1`, the melting point lay in the range of 190 to 192 °C.

In the case of `Cc1nc(-c2ccc(C(=O)N(C)c3ccc(Cl)cc3)cc2)sc1C(=O)O`, the melting point is 210 to 212 °C.

For the compound `O=C(c1ccccc1)c1cc(CN2CCN(c3ccccc3)CC2)on1`, the melting point lay in the range of 100 to 102 °C.

`COC(=O)c1ccc2nc(SCCN3CCN(CC(=O)Nc4c(C(C)C)cccc4C(C)C)CC3)oc2c1C(=O)OC` returned a melting point of 186 to 187 °C.

Take `Cc1cc(-c2ccccc2O)n(-c2ccccc2)n1`: the melting point was in the range of 211 to 214 °C.

`CS(=O)(=O)c1nccc(Oc2ccc(NC(=O)c3cc(F)cc(N4CCOCC4)c3)c3ccccc23)n1` came in with a melting point of 173 to 175 °C.

In turn, `Cc1cccc2c(C(CO)=C3SC(=O)NC3=O)cccc12` had a melting point of 160 to 161 °C.

`CCN(CC)c1ccc2nc3c4ccccc4c(=Nc4nc5ccc(OC)cc5s4)cc-3oc2c1` yielded a melting point of 197 to 198 °C.

Compound `C#CCN1CC(=O)Oc2cc(F)c(NN)cc21` returned a melting point of 146 °C.

As for `O=C1c2ccccc2C(=O)c2oc(-c3ccc(Cl)cc3)nc21`, the melting point is > 260 °C.

`COC(=O)[C@H]1C[C@H](NS(C)(=O)=O)c2c(Cl)cc(Cl)cc2N1` (relative stereo) yielded a melting point of 143 to 146 °C.

`CSc1ccc(C(=O)Nc2cc(-c3c(-c4ccc(F)c(C)c4)nc4cccnn34)ccn2)cc1` gave a melting point of 191 to 192 °C.
